According to patent US5811241A, “Method for preparing and identifying N-substitued 1,4-piperazines and N-substituted 1,4-piperazinediones” (Cortech, Inc., priority 1995, dated 1998):

Biological target: T1, human BK2 receptor (Homo sapiens, UniProt P30411)
T1 construct: expressed in transfected cells; host or cells: CHO-K1 (ATCC)
T1 sequence (P30411 1-391): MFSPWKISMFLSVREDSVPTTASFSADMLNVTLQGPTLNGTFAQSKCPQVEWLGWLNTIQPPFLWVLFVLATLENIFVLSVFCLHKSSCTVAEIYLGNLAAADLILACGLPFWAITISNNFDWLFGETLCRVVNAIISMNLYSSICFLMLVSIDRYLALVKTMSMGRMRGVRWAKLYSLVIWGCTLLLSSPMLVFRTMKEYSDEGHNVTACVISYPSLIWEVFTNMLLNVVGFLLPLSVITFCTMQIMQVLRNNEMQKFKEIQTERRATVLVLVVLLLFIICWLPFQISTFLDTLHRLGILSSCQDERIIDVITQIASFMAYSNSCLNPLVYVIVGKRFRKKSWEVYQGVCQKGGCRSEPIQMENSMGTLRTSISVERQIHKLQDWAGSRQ
Test: Bradykinin 2 human receptor clone binding assay (inhibition of radio-labeled bradykinin binding)
Details: compound resynthesized in pure form, read-out: IC50, BK binding inhibition
Procedure: Bradykinin 2 and Bradykinin 1 Human Receptor Clone Binding Assays
Human bradykinin B2 receptor was expressed in CHO-K1 (ATCC) cells. Preparation of membranes for binding assay was carried out by scraping cells from roller bottles in ice cold PBS and centrifuging at 1000× g, at 4° C. for 15 minutes. The supernatant was discarded and pellet resuspended in Buffer A consisting of 25 mM TES (pH 6.8) with 2 uM 1,10-phenanthroline, and centrifuged at 27,000× g for 15 min. The pellet was washed once using the same buffer and centrifugation parameters. The final pellet was resuspended in Buffer B (Buffer A with 2 uM captopril, 140 ug/ml bacitracin, 0.1% BSA), and stored in 1 ml aliquot, frozen at -70° C. until needed.
B2 Binding assays were performed by incubating human clone membrane solution with ^3 H-bradykinin (final concentration 0.3 nM) with or without test compounds in assay buffer (Buffer B with 1 mM dithiothreitol), at room temperature, for 45 minutes, at a final volume of 315 ul. All test compound dilutions were done in triplicate. Assays were harvested by quick filtration in a Tomtec Harvester 96, with ice-cold wash buffer consisting of 10 mM Tris/HCl, pH 7.5, 100 mM NaCl,0.02% BSA, onto Wallec printed glassfiber Filtermat "B", which had been pre-soaked with 0.1% PEI and previously air-dried. Filtermats were counted in 9.5 ml Wallec Beta-Plate Scint, in Wallec 1450 MicroBeta Counter.

Structure (SMILES) | IC50
N=C(N)NCCCCCCN1CC(=O)N(Cc2ccc3ccccc3c2)C(C2Cc3ccccc3C2)C1=O (racemic) [Example 60] | 4.1 µM
N=C(N)NCCCCCCCN1CC(=O)N(Cc2ccc(-c3ccccc3)cc2)C(C2Cc3ccccc3C2)C1=O (racemic) [Example 61] | 13 µM
